Experimental data from ChEMBL document CHEMBL1134970, “The TosMIC approach to 3-(oxazol-5-yl) indoles: application to the synthesis of indole-based IMPDH inhibitors” (Bioorg Med Chem Lett, 2002).

How the values were obtained:
CCRF-CEM = assay: Inhibitory concentration against T-cell proliferation response in a CEM cell line (BMS-337197,CEM); format: functional, cell-based; settings: Homo sapiens
[1] = target: Inosine-5'-monophosphate dehydrogenase 2 (Homo sapiens, UniProt P12268); assay: Inhibitory concentration against Inosine-5'-monophosphate dehydrogenase 2 was determined

SMILES	IC50 (CCRF-CEM) [nM]	IC50 [1] [nM]
Cc1cccc(NC(=O)Nc2ccc3c(-c4cnco4)cn(C)c3c2)c1	–	> 5000
Cc1ccc(NC(=O)Nc2ccc3c(-c4cnco4)cn(C)c3c2)cc1	–	> 5000
Cc1cccc(NC(=O)Nc2ccc3c(-c4cnco4)c[nH]c3c2)c1	> 10000	200
Cc1ccc(-c2cnc(Nc3ccc4c(-c5cnco5)c[nH]c4c3)o2)cc1	> 10000	205
COc1cc(Nc2ncc(-c3ccccc3N(C)C(=O)CN3CCOCC3)o2)ccc1-c1cnco1	590	16
COc1cc(NC(=O)Nc2cccc(C)c2)ccc1-c1cnco1	1000	19

The remaining compounds from weak to strong by IC50 [1], led by results:

IC50 (CCRF-CEM) [nM]	IC50 [1] [nM]	SMILES
> 10000	93	c1ccc(-c2cnc(Nc3ccc4c(-c5cnco5)c[nH]c4c3)o2)cc1
1500	77	Cc1cccc(-c2cnc(Nc3ccc4c(-c5cnco5)c[nH]c4c3)o2)c1
> 10000	40	O=C(Nc1ccccc1)Nc1ccc2c(-c3cnco3)c[nH]c2c1
> 10000	38	Cc1ccccc1-c1cnc(Nc2ccc3c(-c4cnco4)c[nH]c3c2)o1
3000	35	CN(C(=O)CN1CCOCC1)c1ccccc1-c1cnc(Nc2ccc3c(-c4cnco4)c[nH]c3c2)o1
9700	35	Cc1ccccc1NC(=O)Nc1ccc2c(-c3cnco3)c[nH]c2c1
> 10000	11	Cc1ccc(NC(=O)Nc2ccc3c(-c4cnco4)c[nH]c3c2)cc1
1000	7	CC(=O)OCC(=O)N(C)c1ccccc1-c1cnc(Nc2ccc3c(-c4cnco4)c[nH]c3c2)o1
